Here are results for 13 compounds from publication PMC11850406, “Large-scale screening of HIV-1 T-cell epitopes restricted by 12 prevalent HLA-A allotypes in Northeast Asia and universal detection of HIV-1-specific CD8^+ T cells” (Frontiers in Microbiology, 2025).

Like-named read-outs stand apart in the source and are kept apart here. Where no end group is shown, it is not given here.

The target in assay [1] is T1, HLA-A0201 (Homo sapiens, UniProt P04439, D140Y/D185E/D98H/E176V/E277Q/G131W/G231S/I119V/I121R/I166T/I218V/L300P/L318F/N151K/N90K/P208A/P217A/Q86G/Q94H/R138H/R169H/T345S).
T1 construct: expressed in transfected cells; host or cells: HMy2.CIR
Kind of assay: cell-based. It is filed as binding. The following applies: for inhibition at 5 µM: read-out: 5-μM inhibition (%); for inhibition at 15 µM: read-out: 15-μM inhibition (%).

Assay [2] addresses T2, HLA-A0203 (Homo sapiens, UniProt P04439, A173T/D140Y/D185E/D98H/E277Q/G131W/G231S/I119V/I121R/I166T/I218V/L180W/L300P/L318F/N151K/N90K/P208A/P217A/Q86G/Q94H/R138H/R169H/T345S).
T2 construct: expressed in transfected cells; host or cells: HMy2.CIR
Kind of assay: cell-based. Format: binding. The following applies: for inhibition at 5 µM: read-out: 5-μM inhibition (%); for inhibition at 15 µM: read-out: 15-μM inhibition (%).

Assay [3] deals with HLA-A1102 (Homo sapiens, UniProt P04439, A114D/D185E/E176A/E43K/F33Y/L180Q/S129P/T187R). Nature of the assay: cell-based. Format: binding. The following applies: 24 h; for inhibition at 5 µM: read-out: 5-μM inhibition (%); for inhibition at 15 µM: read-out: 15-μM inhibition (%).
The target in assay [4] is T3, HLA-A3101 (Homo sapiens, UniProt P04439, A270S/D185E/E176V/E277Q/F33T/G231S/G80R/H175R/I121M/I218V/I322F/K168Q/L300P/L318F/M331R/P217A/Q94H/R138Q/T323A/T345S/T97I/V358M).
T3 construct: expressed in transfected cells; host or cells: HMy2.CIR
Nature of the assay: Peptide competitive binding assay, HMy2.CIR cells expressing A3101. As to conditions: for IC50: read-out: Affinity; for inhibition at 5 µM / 5-μM inhibition (%): peptide 5 μM vs FITC-labeled reference peptide 300 nM; for inhibition at 5 µM / inhibition at 15 µM / 5-μM inhibition (%) / 15-μM inhibition (%): 24 h, 4°C, flow cytometry; for inhibition at 15 µM / 15-μM inhibition (%): peptide 15 μM vs FITC-labeled reference peptide 300 nM.

The target in assay [5] is T4, HLA-A1101 (Homo sapiens, UniProt P04439, A114D/D185E/E176A/F33Y/L180Q/S129P/T187R).
T4 construct: expressed in transfected cells; host or cells: HMy2.CIR
Kind of assay: cell-based. It is filed as binding.

Assay [6] concerns the target HLA-A3303 (Homo sapiens, UniProt P04439, A270S/D185E/E176V/E277Q/E87N/F33T/G231S/H175R/I121M/I218V/I322F/K168Q/L300P/L318F/M331R/P217A/Q86R/Q94H/R138Q/T323A/T345S/T97I/V358M). Nature of the assay: Peptide competitive binding assay, HMy2.CIR cells expressing A3303. As to conditions: for inhibition at 5 µM: peptide 5 μM vs FITC-labeled reference peptide 300 nM; for inhibition at 5 µM / inhibition at 15 µM: 24 h, 4°C, flow cytometry; for inhibition at 15 µM: peptide 15 μM vs FITC-labeled reference peptide 300 nM; for IC50: read-out: Affinity.

[7] abbreviates: A1102, peptide 5 μM vs FITC-labeled reference peptide 300 nM, 4°C, flow cytometry.
Setting [8] is: A1102, peptide 15 μM vs FITC-labeled reference peptide 300 nM, 4°C, flow cytometry.
The mark [9] stands for this setting: A3101, class from inhibition at 5 and 15 μM of FITC-labeled reference peptide binding.
Where [10] appears, read: A0201, peptide 5 μM vs FITC-labeled reference peptide 300 nM, 24 h, 4°C, flow cytometry.
[11] abbreviates: A0201, peptide 15 μM vs FITC-labeled reference peptide 300 nM, 24 h, 4°C, flow cytometry.
The mark [12] stands for this setting: A0203, peptide 5 μM vs FITC-labeled reference peptide 300 nM, 24 h, 4°C, flow cytometry.
The mark [13] stands for this setting: A0203, peptide 15 μM vs FITC-labeled reference peptide 300 nM, 24 h, 4°C, flow cytometry.

In the case of `CC[C@H](C)[C@H](NC(=O)[C@H](CO)NC(=O)[C@@H](NC(=O)[C@@H]1CCCN1C(=O)[C@H](CO)NC(=O)[C@H](Cc1ccc(O)cc1)NC(=O)[C@H](CCSC)NC(=O)[C@@H](N)CCCNC(=N)N)C(C)C)C(=O)N[C@@H](CC(C)C)C(=O)O` [Peptide P9], the inhibition at 5 µM in assay [1] (24 h) and in assay [2] (24 h) was 0% in each case. The inhibition at 15 µM in assay [1] (24 h) came to 4.54%; in assay [2] (24 h), 50.1%. This compound also gave an IC50 in assay [2] of 5 to 15 µM.
For the compound KVLKQVTEK [Peptide P87], the “5-μM inhibition (%)” value in assay [3] (setting [7]) was found to be 5.66%. The “15-μM inhibition (%)” value in assay [3] (setting [8]) is on record as 16.76%.
Regarding KAREFSSER [Peptide P100], the IC50 in assay [4] (setting [9]) was 5 to 15 µM. In assay [4] (A3101), this compound yielded an inhibition at 5 µM of 42.9% and an inhibition at 15 µM of 95.1%.
Consider ALFYKLDIV [Peptide P2], for which the IC50 in assay [1] and in assay [2] was 5 to 15 µM in each case. Also, the inhibition at 5 µM in assay [1] (setting [10]) came to 23.2%; in assay [2] (setting [12]) it was 26.1%. In addition, the inhibition at 15 µM turned out to be 70.5% in assay [1] (setting [11]) and 61.9% in assay [2] (setting [13]).
Turning to `CC[C@H](C)[C@H](NC(=O)[C@H](Cc1ccccc1)NC(=O)[C@@H](NC(=O)[C@H](C)N)C(C)C)C(=O)N[C@@H](Cc1c[nH]cn1)C(=O)N[C@@H](CC(N)=O)C(=O)N[C@@H](Cc1ccccc1)C(=O)N[C@@H](CCCCN)C(=O)N[C@@H](CCCNC(=N)N)C(=O)O` [Peptide P41], the IC50 in assay [5], in assay [4] and in assay [6] was less than 5 µM throughout. The inhibition at 5 µM in assay [5] (24 h, read-out: 5-μM inhibition (%)) came to 83.8%; in assay [3], 1.73%; in assay [4] (A3101), 63.4%; in assay [6] (A3303), 71%. In addition, the inhibition at 15 µM is 86.8% in assay [5] (24 h, read-out: 15-μM inhibition (%)); 21.5% in assay [3]; 96% in assay [4] (A3101); 89.8% in assay [6] (A3303).
In the case of VTGIRKNYR [Peptide P99], in assay [4] (A3101), the “5-μM inhibition (%)” value amounted to 0.00% and the “15-μM inhibition (%)” value was 15.00%.
As for ALQTGTEEL [Peptide P8], the “5-μM inhibition (%)” value in assay [1] (setting [10]) and in assay [2] (setting [12]) was 0.00% in each case. For the same compound, the “15-μM inhibition (%)” value in assay [1] (setting [11]) stood at 14.68%; in assay [2] (setting [13]) it was 5.56%.
In the case of RIKCFNCGR [Peptide P96], in assay [4] (A3101), the “5-μM inhibition (%)” value stood at 0.00% and the “15-μM inhibition (%)” value turned out to be 0.00%.
For the compound RAKRRVVER [Peptide P98], in assay [4] (setting [9]), the IC50 is 5 to 15 µM. In assay [4] (A3101), this compound gave an inhibition at 5 µM of 47.9% and an inhibition at 15 µM of 82%.
For the compound IQNFRVYYR [Peptide P112], the inhibition at 5 µM turned out to be 20.1% in assay [4] (A3101) and 48.7% in assay [6] (A3303). Besides, the inhibition at 15 µM in assay [4] (A3101) worked out at 25.7%; in assay [6] (A3303), 55.1%. Further, the IC50 in assay [6] fell in the range of 5 to 15 µM.
With MAHQPLSPR [Peptide P111], the inhibition at 5 µM in assay [3] (setting [7]) worked out at 4.16%; in assay [6] (A3303), 78.2%. The figures for the inhibition at 15 µM in assay [3] (setting [8]) and in assay [6] (A3303) were 20.6% and 89.2%, respectively. Moreover, the IC50 in assay [6] (A3303, class from inhibition at 5 and 15 μM of FITC-labeled reference peptide binding) was less than 5 µM.
For AAGTGSSSK [Peptide P86], the “5-μM inhibition (%)” value in assay [3] (setting [7]) came out at 1.04%. In addition, in assay [3] (setting [8]), the “15-μM inhibition (%)” value stood at 3.12%.
As to MVHQPISPR [Peptide P103], the inhibition at 5 µM was 3.81% in assay [3] (setting [7]), 65.4% in assay [4] (A3101) and 70.2% in assay [6] (A3303). The inhibition at 15 µM came to 13.4% in assay [3] (setting [8]), 79.2% in assay [4] (A3101) and 99.5% in assay [6] (A3303). Besides, the IC50 in assay [4] and in assay [6] was less than 5 µM in each case.
